We go through 2 molecules from patent US20250290117A1, “MOLECULAR PHENOTYPIC ANTIMICROBIAL SUSCEPTIBILITY TESTING” (priority 2024, published 2025).

For experiment [1], the system named is E. coli. Put plainly: Molecular phenotypic antimicrobial susceptibility test with direct PCR (no extraction DNA purification step). The format is cell-based, Escherichia coli. On the procedure:
Detection of Molecular Phenotypic Antimicrobial Susceptibility. Disclosed herein are the methods for the detection of phenotypic antimicrobial susceptibility via molecular methods. The present invention describes how a specimen 100 with a known microbial load is incubated and then exposed to a panel of antimicrobial agents to determine sensitivity (prevention of growth) or resistance (allowance of growth) to the specific antimicrobial agents tested utilizing molecular methods.
Sample Collection. Specimens 100 are collected from patients using sterile collection processes that are employed in routine clinical care. Specimens are transported to the testing facility in boric acid preservative. Specimens 100 are subsequently divided into a first sample 104 and a second sample 108.
Preparation of the Specimens for Testing. The specimens 100 are put through a pathogen identification process using PCR technology (e.g., using the first sample 104). The process for pathogen isolation includes steps of harvesting the pathogen (e.g., via centrifugation), isolating pathogen DNA via a DNA isolation and/or purification kit, and performing PCR on the pathogen DNA via PCR components (e.g., primers, enzymes, buffers) as would be known to the skilled artisan. Simultaneously, an additional aliquot of the same specimen (e.g., the second sample 108) is placed with liquid culture media and incubated for 4-6 hours. This aliquot is used for antimicrobial susceptibility testing if indicated based on the pathogen detection results. After pathogen identification is completed and if more than 10,000 cells/mL of bacteria (e.g., eligible bacteria) are detected in the source specimen, the second sample 108 then enters the antimicrobial susceptibility phase of testing. Specimens 100 with lower pathogen loads could also be utilized in the antibiotic susceptibility phase of testing with or without a longer incubation period.
Preparation of Antimicrobial Susceptibility Testing Plates. Antimicrobial solutions are prepared at known concentrations. The specific antimicrobials and their concentrations are selected based on the pathogen of interest and the described antimicrobial resistance breakpoints for that specimen pathogen and antimicrobial combination. These antimicrobials have been selected based on those commonly utilized by healthcare providers in routine clinical care for the specific type of suspected infection. The number and types of antimicrobials utilized can be customized based on the infection source, pathogen detected, patient-specific factors such as allergies or other health conditions (e.g., chronic kidney disease or concurrent medication use), or healthcare provider preferences such as antimicrobial availability or cost.
The antimicrobial solutions are prepared in liquid culture media (such as Muller Hinton Broth) to achieve the desired antimicrobial concentration and are then stored at −80° C. until use. For a given specimen, each antimicrobial is tested at a single or multiple antimicrobial concentration(s) which is its established breakpoints for sensitivity. The antimicrobial solutions are prepared and plated out for each specific pathogen. This allows ease of use on the day of testing after defrosting the plate 112. Table 1, which illustrates the results of molecular phenotypic antimicrobial susceptibility testing when more than one organism is present in the source specimen, provides an example of an antimicrobial plate 112 prepared for this purpose. Of note, control wells containing only culture media are present on all plates 112. This allows for evaluation of pathogen load when no antimicrobial is present.
Specimen Exposure to Antimicrobial Agents. The 1 mL aliquot of the specimen 100 previously mixed with culture media and incubated is obtained. Using optical density measurements as a guide, the specimen 100 is diluted to 0.5 McFarland. […]

In experiment [2] the test system is pathogen of the specimen. Kind of experiment: Molecular phenotypic antimicrobial susceptibility test with direct PCR at various incubation timepoints (Table 7). It is filed as cell-based. On the procedure: Detection of Molecular Phenotypic Antimicrobial Susceptibility. Disclosed herein are the methods for the detection of phenotypic antimicrobial susceptibility via molecular methods. The present invention describes how a specimen 100 with a known microbial load is incubated and then exposed to a panel of antimicrobial agents to determine sensitivity (prevention of growth) or resistance (allowance of growth) to the specific antimicrobial agents tested utilizing molecular methods. Sample Collection. Specimens 100 are collected from patients using sterile collection processes that are employed in routine clinical care. Specimens are transported to the testing facility in boric acid preservative. […] The process for pathogen isolation includes steps of harvesting the pathogen (e.g., via centrifugation), isolating pathogen DNA via a DNA isolation and/or purification kit, and performing PCR on the pathogen DNA via PCR components (e.g., primers, enzymes, buffers) as would be known to the skilled artisan. […] This aliquot is used for antimicrobial susceptibility testing if indicated based on the pathogen detection results. […] Specimens 100 with lower pathogen loads could also be utilized in the antibiotic susceptibility phase of testing with or without a longer incubation period. […] Antimicrobial solutions are prepared at known concentrations. The specific antimicrobials and their concentrations are selected based on the pathogen of interest and the described antimicrobial resistance breakpoints for that specimen pathogen and antimicrobial combination. These antimicrobials have been selected based on those commonly utilized by healthcare providers in routine clinical care for the specific type of suspected infection. The number and types of antimicrobials utilized can be customized based on the infection source, pathogen detected, patient-specific factors such as allergies or other health conditions (e.g., chronic kidney disease or concurrent medication use), or healthcare provider preferences such as antimicrobial availability or cost. The antimicrobial solutions are prepared in liquid culture media (such as Muller Hinton Broth) to achieve the desired antimicrobial concentration and are then stored at −80° C. until use. For a given specimen, each antimicrobial is tested at a single or multiple antimicrobial concentration(s) which is its established breakpoints for sensitivity. The antimicrobial solutions are prepared and plated out for each specific pathogen. […] This allows for evaluation of pathogen load when no antimicrobial is present. Specimen Exposure to Antimicrobial Agents. The 1 mL aliquot of the specimen 100 previously mixed with culture media and incubated is obtained. Using optical density measurements as a guide, the specimen 100 is diluted to 0.5 McFarland. […] Antimicrobial exposure plates are typically placed into an incubator for 12-16 hours. […] Nucleic Acid Amplification of Antimicrobial Agent Exposed Pathogens. The antimicrobial exposure plate is removed after the period of incubation. The specimen then undergoes a purification or lysis step. For example, the specimen may undergo a purification step (e.g., magnetic bead-based or other separation protocol to isolate genetic material). In another example, the specimen may undergo a cell lysis step. For example, buffer (e.g., lysis buffer) may be added and incubated in the thermal cycler for preparation for direct PCR. Next, the specimen may undergo a polymerase chain reaction (PCR) testing protocol, whereby a semi-quantitative PCR method is utilized. This may be completed either with or without a specific extraction protocol step. The pathogens can be individually targeted and detected, or a universal genetic sequence can be utilized to detect the antimicrobial susceptibility of the specimen as a whole. The control wells are utilized as a threshold for determining antimicrobial sensitivity or resistance. […] Antimicrobial Susceptibility Result Interpretation.

[3] abbreviates: E. coli isolate JJ1887, direct PCR, Ct at control (average) 12.832.
Where [4] appears, read: E. coli isolate JJ1887, direct PCR, at sensitive breakpoint.
The mark [5] stands for this setting: E. coli isolate 1189, antibiotic incubation time 4 hours.
Where [6] appears, read: E. coli isolate 1189, antibiotic incubation time 4 hours, control average Ct […].
Setting [7] is: E. coli isolate 1189, antibiotic incubation time 6 hours.
The mark [8] stands for this setting: E. coli isolate 1189, antibiotic incubation time 6 hours, control average Ct 16.992.
The mark [9] stands for this setting: E. coli isolate 1189, antibiotic incubation time 8 hours.
Where [10] appears, read: E. coli isolate 1189, antibiotic incubation time 8 hours, control average Ct […].
Setting [11] is: E. coli isolate 1189, antibiotic incubation time 10 hours.
Setting [12] is: E. coli isolate 1189, antibiotic incubation time 10 hours, control average Ct 15.995.
Where [13] appears, read: E. coli isolate 1189, antibiotic incubation time 12 hours.
[14] abbreviates: E. coli isolate 1189, antibiotic incubation time 12 hours, control average Ct 15.495.
Setting [15] is: E. coli isolate 1189, antibiotic incubation time 14 hours.
[16] abbreviates: E. coli isolate 1189, antibiotic incubation time 14 hours, control average Ct 15.826.
[17] abbreviates: E. coli isolate 1189, antibiotic incubation time 16 hours.
[18] abbreviates: E. coli isolate 1189, antibiotic incubation time 16 hours, control average Ct 14.880.

With `Cc1nnc(SCC2=C(C(=O)O)N3C(=O)[C@@H](NC(=O)Cn4cnnn4)[C@H]3SC2)s1` [Cefazolin], the “Molecular Antimicrobial Susceptibility Result” value in experiment [1] (E. coli #1 - WDCM 00090 - 6.2×E3, specimen with <10,000 cells/mL, direct PCR after 16 hours of incubation) is listed as “Sensitive (Antimicrobial wells with pathogen load detected below the control wells (typically >2 cycle thresholds later) may be reported as Sensitive)”; in experiment [1] (E. coli #2 - WDCM 00090 - 6.2×E3, specimen with <10,000 cells/mL, direct PCR after 16 hours of incubation), “Sensitive (Antimicrobial wells with pathogen load detected below the control wells (typically >2 cycle thresholds later) may be reported as Sensitive)”; in experiment [1] (setting [4]) it was “Resistant”; in experiment [2] (setting [5]), “Resistant”; in experiment [2] (setting [7]), “Resistant”; in experiment [2] (setting [9]), “Resistant”. Also, the “Molecular Antimicrobial Susceptibility Result” value in experiment [2] (setting [11]), in experiment [2] (setting [13]), in experiment [2] (setting [15]) and in experiment [2] (setting [17]) was “Resistant” in each case. Further, the “Ct at Sensitive Breakpoint” value is 25.72 in experiment [1] (E. coli #1 - WDCM 00090 - 6.2×E3, specimen with <10,000 cells/mL, direct PCR after 16 hours of incubation, Ct at control 13.787); 26.56 in experiment [1] (E. coli #2 - WDCM 00090 - 6.2×E3, specimen with <10,000 cells/mL, direct PCR after 16 hours of incubation, Ct at control 13.46); 12.804 in experiment [1] (setting [3]); 16.209 in experiment [2] (setting [6]); 16.328 in experiment [2] (setting [8]); 17.305 in experiment [2] (setting [10]). Further, the “Ct at Sensitive Breakpoint” value in experiment [2] (setting [12]) was found to be 15.756; in experiment [2] (setting [14]) it was 15.126; in experiment [2] (setting [16]), 17.599; in experiment [2] (setting [18]), 15.199.

With `C[C@@H](O)[C@H]1C(=O)N2C(C(=O)O)=C(S[C@@H]3CN[C@H](C(=O)N(C)C)C3)[C@H](C)[C@H]12` [Meropenem], the “Ct at Sensitive Breakpoint” value in experiment [1] (setting [3]) came out at 25.055; in experiment [2] (setting [6]) it was 22.751; in experiment [2] (setting [8]) it was 22.884; in experiment [2] (setting [10]), 23.187; in experiment [2] (setting [12]), 23.901; in experiment [2] (setting [14]) it was 26.014. Besides, the “Ct at Sensitive Breakpoint” value was 26.211 in experiment [2] (setting [16]) and 27.457 in experiment [2] (setting [18]). The “Molecular Antimicrobial Susceptibility Result” value in experiment [1] (setting [4]), in experiment [2] (setting [5]), in experiment [2] (setting [7]), in experiment [2] (setting [9]), in experiment [2] (setting [11]) and in experiment [2] (setting [13]) was “Sensitive (Antimicrobial wells with pathogen load detected below the control wells (typically >2 cycle thresholds later) may be reported as Sensitive)” throughout. Moreover, the “Molecular Antimicrobial Susceptibility Result” value in experiment [2] (setting [15]) and in experiment [2] (setting [17]) was “Sensitive (Antimicrobial wells with pathogen load detected below the control wells (typically >2 cycle thresholds later) may be reported as Sensitive)” in each case.
